Compound: NCC(=O)Nc1ccc(-n2nc(C(F)(F)F)cc2-c2ccc3c(ccc4ccccc43)c2)cc1 + CS(=O)(=O)CCNCc1ccc(-c2ccc3ncnc(Nc4ccc(OCc5cccc(F)c5)c(Cl)c4)c3c2)o1 [Lapatinib] (partner 2 µM)
Assay: relative viability (nuclei count vs DMSO), 5 days (fraction); higher = more cells survive
Details: first compound 0.02 µM
In short: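 Medians of duplicate plates are given as relative viability. That measure is the nuclei count in treated wells divided by the count in vehicle wells. Counts were taken on 4× images of lung cancer cell lines in 1536-well plates, 5 days after pin-tool dosing the day after seeding with one drug alone or a fixed anchor-drug dose plus five library-drug doses (not always all listed) in √10 steps.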

NCI-H1666 was tested. Which relative viability did it give?
Its relative viability is 0.59.

Which relative viability does the source give for NCI-H596 here?
The relative viability was 1.13.

For LK-2, which relative viability is on record?
The relative viability was 0.966.

For NCI-H2087, which relative viability is on record?
Its relative viability is 1.02.

Which relative viability does the source give for SK-MES-1 here?
Its relative viability is 0.485.

Which relative viability does the source give for H3255 here?
The relative viability was 0.276.

With COR-L23 as the cell line, how does the relative viability read?
Its relative viability is 0.97.

Which relative viability does the source give for COR-L 105 here?
The relative viability was 0.418.

Which relative viability does the source give for IA-LM here?
The relative viability was 0.802.

Which relative viability does the source give for LOU-NH91 here?
The relative viability was 0.848.

How did the relative viability turn out when NCI-H2170 was run?
Its relative viability is 0.278.

Which relative viability does the source give for NCI-H2405 here?
The relative viability was 1.05.

With HOP-62 as the cell line, how does the relative viability read?
The relative viability was 1.06.

Which relative viability does the source give for HCC-44 here?
Its relative viability is 1.02.

How did the relative viability turn out when A549 was run?
The relative viability was 1.02.

How did the relative viability turn out when LU99A was run?
The relative viability was 0.943.

For BEN, which relative viability is on record?
The relative viability was 0.738.

HARA was tested. Which relative viability did it give?
Its relative viability is 0.649.

With HCC-78 as the cell line, how does the relative viability read?
The relative viability was 0.819.

For NCI-H322M, which relative viability is on record?
The relative viability was 0.617.

LCLC-97TM1 was tested. Which relative viability did it give?
Its relative viability is 0.816.

Which relative viability does the source give for NCI-H2009 here?
The relative viability was 0.872.

A-427 was tested. Which relative viability did it give?
The relative viability was 1.08.

How did the relative viability turn out when NCI-H661 was run?
Its relative viability is 0.526.

Which relative viability does the source give for NCI-H1734 here?
The relative viability was 1.05.

NCI-H460 was tested. Which relative viability did it give?
The relative viability was 0.965.

NCI-H2347 was tested. Which relative viability did it give?
The relative viability was 0.883.

SK-LU-1 was tested. Which relative viability did it give?
Its relative viability is 0.87.

NCI-H1395 was tested. Which relative viability did it give?
Its relative viability is 1.15.

Which relative viability does the source give for 201T here?
The relative viability was 1.04.

Which relative viability does the source give for NCI-H1915 here?
The relative viability was 0.922.

Which relative viability does the source give for HCC-827 here?
Its relative viability is 0.178.

How did the relative viability turn out when LXF-289 was run?
The relative viability was 0.953.

How did the relative viability turn out when NCI-H23 was run?
Its relative viability is 1.18.

Which relative viability does the source give for NCI-H1299 here?
The relative viability was 0.987.

NCI-H647 was tested. Which relative viability did it give?
The relative viability was 1.2.

Which relative viability does the source give for CAL-12T here?
The relative viability was 0.671.

Which relative viability does the source give for NCI-H1651 here?
Its relative viability is 0.715.

EPLC-272H was tested. Which relative viability did it give?
Its relative viability is 0.88.

Same assay, conditions: first compound 0.06325 µM

With NCI-H1666 as the cell line, how does the relative viability read?
The relative viability was 0.61.

How did the relative viability turn out when NCI-H596 was run?
Its relative viability is 1.09.

Which relative viability does the source give for LK-2 here?
The relative viability was 1.06.

Which relative viability does the source give for NCI-H2087 here?
Its relative viability is 0.988.

For SK-MES-1, which relative viability is on record?
The relative viability was 0.403.

H3255 was tested. Which relative viability did it give?
The relative viability was 0.268.

COR-L23 was tested. Which relative viability did it give?
The relative viability was 0.997.

With COR-L 105 as the cell line, how does the relative viability read?
Its relative viability is 0.33.

For IA-LM, which relative viability is on record?
Its relative viability is 0.823.

LOU-NH91 was tested. Which relative viability did it give?
The relative viability was 0.678.

For NCI-H2170, which relative viability is on record?
Its relative viability is 0.285.

How did the relative viability turn out when NCI-H2405 was run?
The relative viability was 1.12.

With HOP-62 as the cell line, how does the relative viability read?
Its relative viability is 0.913.

Which relative viability does the source give for HCC-44 here?
The relative viability was 1.16.

With A549 as the cell line, how does the relative viability read?
The relative viability was 1.02.

For LU99A, which relative viability is on record?
The relative viability was 1.13.

How did the relative viability turn out when BEN was run?
The relative viability was 1.11.

For HARA, which relative viability is on record?
Its relative viability is 0.801.

How did the relative viability turn out when HCC-78 was run?
The relative viability was 1.04.

With NCI-H322M as the cell line, how does the relative viability read?
The relative viability was 0.62.

For LCLC-97TM1, which relative viability is on record?
The relative viability was 1.13.

NCI-H2009 was tested. Which relative viability did it give?
Its relative viability is 0.948.

A-427 was tested. Which relative viability did it give?
Its relative viability is 1.11.

For NCI-H661, which relative viability is on record?
Its relative viability is 0.521.

With NCI-H1734 as the cell line, how does the relative viability read?
The relative viability was 1.01.

Which relative viability does the source give for NCI-H460 here?
The relative viability was 0.956.

With NCI-H2347 as the cell line, how does the relative viability read?
The relative viability was 0.939.

SK-LU-1 was tested. Which relative viability did it give?
Its relative viability is 0.841.

How did the relative viability turn out when NCI-H1395 was run?
The relative viability was 1.02.

Which relative viability does the source give for 201T here?
Its relative viability is 1.07.

Which relative viability does the source give for NCI-H1915 here?
Its relative viability is 0.939.

With HCC-827 as the cell line, how does the relative viability read?
Its relative viability is 0.201.

For LXF-289, which relative viability is on record?
The relative viability was 0.953.

NCI-H23 was tested. Which relative viability did it give?
The relative viability was 0.96.

For NCI-H1299, which relative viability is on record?
Its relative viability is 0.943.

How did the relative viability turn out when NCI-H647 was run?
The relative viability was 1.07.

With CAL-12T as the cell line, how does the relative viability read?
The relative viability was 0.823.

Which relative viability does the source give for NCI-H1651 here?
The relative viability was 0.758.

How did the relative viability turn out when EPLC-272H was run?
Its relative viability is 1.09.

Same assay, conditions: first compound 0.2 µM

For NCI-H1666, which relative viability is on record?
The relative viability was 0.588.

For NCI-H596, which relative viability is on record?
The relative viability was 1.11.

With LK-2 as the cell line, how does the relative viability read?
Its relative viability is 0.884.

How did the relative viability turn out when NCI-H2087 was run?
Its relative viability is 1.02.

Which relative viability does the source give for SK-MES-1 here?
Its relative viability is 0.546.

Which relative viability does the source give for H3255 here?
The relative viability was 0.231.

COR-L23 was tested. Which relative viability did it give?
Its relative viability is 1.2.

Which relative viability does the source give for COR-L 105 here?
The relative viability was 0.401.

How did the relative viability turn out when IA-LM was run?
Its relative viability is 0.757.

Which relative viability does the source give for LOU-NH91 here?
Its relative viability is 0.781.

With NCI-H2170 as the cell line, how does the relative viability read?
The relative viability was 0.277.

How did the relative viability turn out when NCI-H2405 was run?
The relative viability was 1.13.

HOP-62 was tested. Which relative viability did it give?
The relative viability was 0.998.

HCC-44 was tested. Which relative viability did it give?
The relative viability was 0.974.

A549 was tested. Which relative viability did it give?
The relative viability was 0.994.

How did the relative viability turn out when LU99A was run?
The relative viability was 1.07.

With BEN as the cell line, how does the relative viability read?
The relative viability was 0.701.

With HARA as the cell line, how does the relative viability read?
Its relative viability is 0.829.

HCC-78 was tested. Which relative viability did it give?
The relative viability was 0.745.

How did the relative viability turn out when NCI-H322M was run?
Its relative viability is 0.681.

For NCI-H2009, which relative viability is on record?
Its relative viability is 0.868.

For A-427, which relative viability is on record?
The relative viability was 1.14.

NCI-H661 was tested. Which relative viability did it give?
Its relative viability is 0.44.

For NCI-H1734, which relative viability is on record?
Its relative viability is 1.15.

With NCI-H460 as the cell line, how does the relative viability read?
The relative viability was 0.991.

With NCI-H2347 as the cell line, how does the relative viability read?
Its relative viability is 0.955.

SK-LU-1 was tested. Which relative viability did it give?
The relative viability was 0.887.

How did the relative viability turn out when NCI-H1395 was run?
The relative viability was 0.928.

With 201T as the cell line, how does the relative viability read?
The relative viability was 0.996.

For NCI-H1915, which relative viability is on record?
Its relative viability is 0.942.

For HCC-827, which relative viability is on record?
The relative viability was 0.172.

With LXF-289 as the cell line, how does the relative viability read?
The relative viability was 0.916.

Which relative viability does the source give for NCI-H23 here?
Its relative viability is 1.12.

For NCI-H1299, which relative viability is on record?
Its relative viability is 1.02.

NCI-H647 was tested. Which relative viability did it give?
The relative viability was 1.21.

How did the relative viability turn out when CAL-12T was run?
The relative viability was 0.672.

Which relative viability does the source give for NCI-H1651 here?
Its relative viability is 0.782.

For EPLC-272H, which relative viability is on record?
Its relative viability is 0.85.

Same assay, conditions: first compound 0.6325 µM

How did the relative viability turn out when NCI-H1666 was run?
Its relative viability is 0.744.

How did the relative viability turn out when NCI-H596 was run?
The relative viability was 1.09.

Which relative viability does the source give for LK-2 here?
Its relative viability is 1.

NCI-H2087 was tested. Which relative viability did it give?
The relative viability was 1.11.

With SK-MES-1 as the cell line, how does the relative viability read?
Its relative viability is 0.455.

With H3255 as the cell line, how does the relative viability read?
Its relative viability is 0.258.

Which relative viability does the source give for COR-L23 here?
Its relative viability is 0.938.

With COR-L 105 as the cell line, how does the relative viability read?
Its relative viability is 0.39.

How did the relative viability turn out when IA-LM was run?
The relative viability was 0.85.

With LOU-NH91 as the cell line, how does the relative viability read?
The relative viability was 0.797.

How did the relative viability turn out when NCI-H2170 was run?
Its relative viability is 0.286.

How did the relative viability turn out when NCI-H2405 was run?
Its relative viability is 1.02.

Which relative viability does the source give for HOP-62 here?
The relative viability was 0.959.

How did the relative viability turn out when HCC-44 was run?
The relative viability was 1.03.

With A549 as the cell line, how does the relative viability read?
Its relative viability is 1.03.

LU99A was tested. Which relative viability did it give?
Its relative viability is 0.987.

How did the relative viability turn out when BEN was run?
Its relative viability is 0.708.

With HARA as the cell line, how does the relative viability read?
Its relative viability is 0.822.

For HCC-78, which relative viability is on record?
The relative viability was 0.742.

Which relative viability does the source give for NCI-H322M here?
The relative viability was 0.561.

With LCLC-97TM1 as the cell line, how does the relative viability read?
Its relative viability is 0.981.

For NCI-H2009, which relative viability is on record?
The relative viability was 0.935.

With A-427 as the cell line, how does the relative viability read?
Its relative viability is 1.04.

How did the relative viability turn out when NCI-H661 was run?
The relative viability was 0.445.

With NCI-H1734 as the cell line, how does the relative viability read?
The relative viability was 1.03.

With NCI-H460 as the cell line, how does the relative viability read?
Its relative viability is 0.845.

Which relative viability does the source give for NCI-H2347 here?
Its relative viability is 1.03.

SK-LU-1 was tested. Which relative viability did it give?
The relative viability was 0.905.

NCI-H1395 was tested. Which relative viability did it give?
The relative viability was 1.08.

Which relative viability does the source give for 201T here?
The relative viability was 1.08.

How did the relative viability turn out when NCI-H1915 was run?
The relative viability was 0.95.

How did the relative viability turn out when HCC-827 was run?
The relative viability was 0.199.

How did the relative viability turn out when LXF-289 was run?
Its relative viability is 0.891.

Which relative viability does the source give for NCI-H23 here?
The relative viability was 1.12.

How did the relative viability turn out when NCI-H1299 was run?
Its relative viability is 0.952.

For NCI-H647, which relative viability is on record?
The relative viability was 0.953.

CAL-12T was tested. Which relative viability did it give?
The relative viability was 0.709.

For NCI-H1651, which relative viability is on record?
Its relative viability is 0.909.

For EPLC-272H, which relative viability is on record?
Its relative viability is 0.907.

From the supplement of paper PMC10307832
